Measured values as given in ChEMBL document CHEMBL1201862, “PubChem BioAssay data set” (2004).
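Briefly, cells in 96-well plates were exposed to five compound concentrations for 48 h, and endpoints were estimated by linear interpolation. GI50 marks 50% less growth.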 Calls of active or inactive are those of the source. No stated cut-off is given here; in the data, active = GI50 up to about 1.1 µM and inactive = higher.

Columns and labels:
Assay in all cases: growth of human tumour cells (NCI), 48 h
786-0 = system: 786-0
A498 = system: A498
A549 = system: A549
ACHN = system: ACHN
BT-549 = system: BT-549
CAKI-1 = system: CAKI-1
CCRF-CEM = system: CCRF-CEM
COLO 205 = system: COLO 205
DU-145 = system: DU-145
EKVX = system: EKVX
HCC 2998 = system: HCC 2998
HCT-116 = system: HCT-116
HCT-15 = system: HCT-15
HL-60 = system: HL-60
HOP-62 = system: HOP-62
HOP-92 = system: HOP-92
IGROV-1 = system: IGROV-1
K562 = system: K562
KM12 = system: KM12
LOX IMVI = system: LOX IMVI
M14 = system: M14
MCF7 = system: MCF7
MDA-MB-435 = system: MDA-MB-435
MDA-N = system: MDA-N
MOLT-4 = system: MOLT-4
NCI-H23 = system: NCI-H23
NCI-H460 = system: NCI-H460
NCI/ADR-RES = system: NCI/ADR-RES
OVCAR-3 = system: OVCAR-3
OVCAR-4 = system: OVCAR-4
OVCAR-5 = system: OVCAR-5
OVCAR-8 = system: OVCAR-8
PC-3 = system: PC-3
RPMI-8226 = system: RPMI-8226
RXF 393 = system: RXF 393
SF-295 = system: SF-295
SK-MEL-28 = system: SK-MEL-28
SK-MEL-2 = system: SK-MEL-2
SK-MEL-5 = system: SK-MEL-5
SK-OV-3 = system: SK-OV-3
SN12C = system: SN12C
SNB-19 = system: SNB-19
SNB-75 = system: SNB-75
SR = system: SR
SW-620 = system: SW-620
T47D = system: T47D
TK-10 = system: TK-10
U-251 = system: U-251
UACC-257 = system: UACC-257
UACC-62 = system: UACC-62
UO-31 = system: UO-31
HT-29 = system: HT-29
Hs-578T = system: Hs-578T
MDA-MB-231 = system: MDA-MB-231
NCI-H226 = system: NCI-H226
NCI-H522 = system: NCI-H522
SF-268 = system: SF-268

CCOC(=O)C1=c2[nH]c3cccc4cccc(c43)n2C(=O)CC1 was tested, and the GI50 (786-0) was 34.4 µM (inactive), the GI50 (A498) was > 100 µM (inactive) and the GI50 (A549) was > 100 µM (inactive). The GI50 (ACHN) was > 100 µM (inactive), the GI50 (BT-549) was > 100 µM (inactive) and the GI50 (CAKI-1) was > 100 µM (inactive). The GI50 (CCRF-CEM) was 24.3 µM (inactive), the GI50 (COLO 205) was 43.8 µM (inactive) and the GI50 (DU-145) was 51.6 µM (inactive). For the same molecule, the GI50 (EKVX) was > 100 µM (inactive), the GI50 (HCC 2998) was 84.7 µM (inactive) and the GI50 (HCT-116) was 45.6 µM (inactive). The GI50 (HCT-15) was 39.3 µM, the GI50 (HL-60) was 17.3 µM (inactive) and the GI50 (HOP-62) was > 100 µM (inactive). The GI50 (HOP-92) was 30.5 µM (inactive), the GI50 (IGROV-1) was 49.4 µM (inactive) and the GI50 (K562) was > 100 µM (inactive). The GI50 (KM12) was 26 µM (inactive), the GI50 (LOX IMVI) was 25.4 µM (inactive) and the GI50 (M14) was > 100 µM (inactive). The GI50 (MCF7) was 36.2 µM (inactive), the GI50 (MDA-MB-435) was > 100 µM (inactive) and the GI50 (MDA-N) was > 100 µM (inactive). The GI50 (MOLT-4) was > 100 µM (inactive), the GI50 (NCI-H23) was > 100 µM (inactive) and the GI50 (NCI-H460) was > 100 µM (inactive). For the same molecule, the GI50 (NCI/ADR-RES) was > 100 µM (inactive), the GI50 (OVCAR-3) was > 100 µM (inactive) and the GI50 (OVCAR-4) was > 100 µM (inactive). The GI50 (OVCAR-5) was > 100 µM (inactive), the GI50 (OVCAR-8) was 56.5 µM (inactive) and the GI50 (PC-3) was 93.8 µM (inactive). The GI50 (RPMI-8226) was > 100 µM (inactive), the GI50 (RXF 393) was > 100 µM (inactive) and the GI50 (SF-295) was > 100 µM (inactive). The GI50 (SK-MEL-28) was > 100 µM (inactive), the GI50 (SK-MEL-2) was > 100 µM (inactive) and the GI50 (SK-MEL-5) was 65.3 µM (inactive). For the same molecule, the GI50 (SK-OV-3) was > 100 µM (inactive), the GI50 (SN12C) was > 100 µM (inactive) and the GI50 (SNB-19) was > 100 µM (inactive). For the same molecule, the GI50 (SNB-75) was > 100 µM (inactive), the GI50 (SR) was > 100 µM (inactive) and the GI50 (SW-620) was 29 µM (inactive). The GI50 (T47D) was 22.5 µM (inactive), the GI50 (TK-10) was > 100 µM (inactive) and the GI50 (U-251) was > 100 µM (inactive). For the same molecule, the GI50 (UACC-257) was > 100 µM (inactive), the GI50 (UACC-62) was > 100 µM (inactive) and the GI50 (UO-31) was 38.6 µM (inactive).

For CN(C)c1ccc(C=c2c3cc(O)ccc3n3c2cc(-c2ccccc2)[n+]3C)cc1, the GI50 (786-0) was 1.09 µM (active), the GI50 (A498) was 4.47 µM (inactive) and the GI50 (A549) was 3.73 µM (inactive). For the same molecule, the GI50 (ACHN) was 7.78 µM (inactive), the GI50 (BT-549) was 0.383 µM (active) and the GI50 (CAKI-1) was 8.63 µM (inactive). For the same molecule, the GI50 (CCRF-CEM) was 0.656 µM (active), the GI50 (COLO 205) was 0.452 µM (active) and the GI50 (DU-145) was 1.92 µM (inactive). For the same molecule, the GI50 (EKVX) was 1.96 µM (inactive), the GI50 (HCC 2998) was 2.22 µM (inactive) and the GI50 (HCT-116) was 1.39 µM (inactive). The GI50 (HCT-15) was 18 µM, the GI50 (HL-60) was 0.254 µM (active) and the GI50 (HOP-62) was 1.81 µM (inactive). The GI50 (HOP-92) was 1.13 µM (inactive), the GI50 (HT-29) was 1.69 µM (inactive) and the GI50 (Hs-578T) was 0.333 µM (active). For the same molecule, the GI50 (IGROV-1) was 0.281 µM (active), the GI50 (K562) was 0.428 µM (active) and the GI50 (KM12) was 1.06 µM (active). The GI50 (LOX IMVI) was 1.18 µM (inactive), the GI50 (M14) was 1.51 µM (inactive) and the GI50 (MCF7) was 0.692 µM (active). The GI50 (MDA-MB-231) was 1.04 µM (active), the GI50 (MDA-MB-435) was 0.964 µM (active) and the GI50 (MDA-N) was 0.67 µM (active). For the same molecule, the GI50 (MOLT-4) was 3.27 µM (inactive), the GI50 (NCI-H226) was 1.66 µM (inactive) and the GI50 (NCI-H23) was 1.08 µM (active). For the same molecule, the GI50 (NCI-H522) was 0.337 µM (active), the GI50 (NCI/ADR-RES) was 36.1 µM (inactive) and the GI50 (OVCAR-3) was 0.746 µM (active). The GI50 (OVCAR-4) was 3.28 µM (inactive), the GI50 (OVCAR-5) was 4.82 µM (inactive) and the GI50 (OVCAR-8) was 0.76 µM (active). For the same molecule, the GI50 (PC-3) was 0.9 µM (active), the GI50 (RPMI-8226) was 0.282 µM (active) and the GI50 (RXF 393) was 1.53 µM (inactive). For the same molecule, the GI50 (SF-268) was 0.446 µM (active), the GI50 (SF-295) was 3.78 µM (inactive) and the GI50 (SK-MEL-28) was 1.06 µM (active). The GI50 (SK-MEL-2) was 1.27 µM (inactive), the GI50 (SK-MEL-5) was 0.78 µM (active) and the GI50 (SK-OV-3) was 3.08 µM (inactive). The GI50 (SN12C) was 0.33 µM (active), the GI50 (SNB-19) was 0.369 µM (active) and the GI50 (SNB-75) was 0.468 µM (active). For the same molecule, the GI50 (SR) was 0.568 µM (active), the GI50 (SW-620) was 1.22 µM (inactive) and the GI50 (TK-10) was 3.72 µM (inactive). For the same molecule, the GI50 (U-251) was 0.317 µM (active), the GI50 (UACC-257) was 1.08 µM (active) and the GI50 (UACC-62) was 1.36 µM (inactive). The GI50 (UO-31) was 2.93 µM (inactive).
